Results as given in patent US9663526B2, “Aminopyrimidinyl compounds” (Pfizer Inc., priority 2014, dated 2017).
Where two headings read alike, the source gives them in different places.

Columns and labels:
[1] = biological target: recombinant human kinase domain of JAK2 (Homo sapiens (Human), UniProt O60674); experiment: JAK Caliper enzyme assay at 1 mM ATP (JAK2); format: biochemical;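 note: microfluidic mobility-shift read-out of fluorescent synthetic peptide phosphorylation, percent product converted from peak heights, room temperature, DMSO-only wells as uninhibited baseline, inhibition curve fit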
[2] = biological target: recombinant human kinase domain of TYK2 (Homo sapiens (Human), UniProt P29597); experiment: JAK Caliper enzyme assay at 1 mM ATP (TYK2); format: biochemical; conditions: 1 mM ATP; read-out: IC50 (nM) TYK2;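 note: microfluidic mobility-shift readout of synthetic peptide phosphorylation by TYK2, tuned to 20–30% conversion at room temperature, reaction stopped with EDTA, DMSO-only wells as uninhibited baseline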
[3] = biological target: recombinant human kinase domain of JAK1 (Homo sapiens (Human), UniProt P23458); experiment: JAK Caliper enzyme assay at 1 mM ATP (JAK1); format: biochemical;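 note: microfluidic mobility-shift readout of synthetic fluorescent peptide phosphorylation, percent product converted from peak height, inhibition relative to DMSO-only wells as uninhibited baseline, room temperature incubation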
[4] = biological target: recombinant human kinase domain of JAK3 (Homo sapiens (Human), UniProt P52333); experiment: JAK Caliper enzyme assay at 1 mM ATP (JAK3); format: biochemical;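 note: microfluidic mobility-shift readout of synthetic peptide phosphorylation, percent product converted from peak heights, normalized to DMSO-only wells as uninhibited baseline, room temperature incubation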
[5] = tested on: interferon alpha signalling (TYK2 and JAK1), STAT3 phosphorylation; experiment: Human whole blood INFα induced STAT3 phosphorylation assay; format: cell-based; conditions: compound 60 minutes at 37° C., IFNα 5000 U/ml for 15 minutes, pSTAT3 in lymphocyte population by flow cytometry, read-out: HWB IFN alpha IC50;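 note: flow cytometry with anti-pSTAT3 staining, signal as percent-positive × mean fluorescence, baseline from unstimulated wells, 11-point dilution series, IC50 as inhibition of pSTAT3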
[6] = 1 mM ATP, read-out: IC50 (nM) JAK1
[7] = 1 mM ATP, read-out: IC50 (nM) JAK3

recombinant human kinase domain of JAK1, sequence (P23458 875-1153): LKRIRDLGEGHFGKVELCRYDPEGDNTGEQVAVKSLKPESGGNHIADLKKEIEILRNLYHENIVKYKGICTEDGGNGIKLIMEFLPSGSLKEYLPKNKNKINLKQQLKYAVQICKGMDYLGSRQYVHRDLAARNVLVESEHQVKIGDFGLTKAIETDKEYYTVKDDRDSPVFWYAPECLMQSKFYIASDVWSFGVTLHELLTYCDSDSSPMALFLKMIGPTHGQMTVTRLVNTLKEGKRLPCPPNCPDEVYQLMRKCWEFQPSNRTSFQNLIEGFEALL
recombinant human kinase domain of JAK3, sequence (P52333 822-1111): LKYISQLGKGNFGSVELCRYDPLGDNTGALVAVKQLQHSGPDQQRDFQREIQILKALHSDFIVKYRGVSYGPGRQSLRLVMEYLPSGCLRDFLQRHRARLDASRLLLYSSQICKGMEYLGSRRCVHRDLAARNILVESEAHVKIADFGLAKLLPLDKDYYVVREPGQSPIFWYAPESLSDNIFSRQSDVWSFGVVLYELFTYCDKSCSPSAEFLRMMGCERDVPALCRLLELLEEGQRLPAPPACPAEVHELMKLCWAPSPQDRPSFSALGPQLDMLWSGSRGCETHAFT
recombinant human kinase domain of JAK2, sequence (O60674 849-1124): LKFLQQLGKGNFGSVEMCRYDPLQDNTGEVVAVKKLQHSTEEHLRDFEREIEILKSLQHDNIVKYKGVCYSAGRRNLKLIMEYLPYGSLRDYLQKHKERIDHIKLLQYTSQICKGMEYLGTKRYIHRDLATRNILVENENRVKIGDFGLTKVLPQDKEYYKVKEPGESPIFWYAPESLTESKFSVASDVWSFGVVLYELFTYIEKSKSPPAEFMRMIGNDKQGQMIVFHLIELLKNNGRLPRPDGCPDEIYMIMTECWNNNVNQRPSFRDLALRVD
recombinant human kinase domain of TYK2, sequence (P29597 897-1176): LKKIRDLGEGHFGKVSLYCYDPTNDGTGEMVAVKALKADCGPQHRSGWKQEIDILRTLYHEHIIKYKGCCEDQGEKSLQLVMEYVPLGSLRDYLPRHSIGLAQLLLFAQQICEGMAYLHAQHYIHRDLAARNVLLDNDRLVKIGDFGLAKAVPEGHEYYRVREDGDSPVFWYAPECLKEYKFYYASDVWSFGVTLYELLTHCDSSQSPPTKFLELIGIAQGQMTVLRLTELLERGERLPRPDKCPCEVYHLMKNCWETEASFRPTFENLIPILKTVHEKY

| SMILES | IC50 [1] [nM] | IC50 [2] [nM] | IC50 [3, 6] [nM] | IC50 [4, 7] [nM] | IC50 [5] [nM] | IC50 [3] [nM] | IC50 [4] [nM] |
| --- | --- | --- | --- | --- | --- | --- | --- |
| O=C([C@@H]1CC1(F)F)N1[C@@H]2CC[C@H]1CN(c1ccnc(Nc3cnc(N4CC(O)C4)c(F)c3)n1)C2 [Example 22, [(1S)-2,2-difluorocyclopropyl][(1R,5S)-3-(2-{[5-fluoro-6-(3-hydroxyazetidin-1-yl)pyridin-3-yl]amino}pyrimidin-4-yl)-3,8-diazabicyclo[3.2.1]oct-8-yl]methanone] | 312 | 55 | 490 | > 10000 | 410 |  |  |
| CNC(=O)c1ncc(Nc2nccc(N3C[C@H]4CC[C@@H](C3)N4C(=O)[C@@H]3C[C@H]3C#N)n2)cc1Cl [Example 31, 3-chloro-5-({4-[(1R,5S)-8-{[(1R,2R)-2-cyanocyclopropyl]carbonyl}-3,8-diazabicyclo[3.2.1]oct-3-yl]pyrimidin-2-yl}amino)-N-methylpyridine-2-carboxamide] | 401 | 32 | 78 | > 10000 | 284 |  |  |
| CNC(=O)c1ncc(Nc2nccc(N3C[C@H]4CC[C@@H](C3)N4C(=O)[C@@H]3CC3(F)F)n2)cc1C (single isomer, unassigned) [Example 33] | 116 | 15 | 62 | 9280 | 122 |  |  |
| CCNC(=O)N1[C@@H]2CC[C@H]1CN(c1ccnc(Nc3cnsc3)n1)C2 [Example 74, (1R,5S)—N-ethyl-3-[2-(1,2-thiazol-4-ylamino)pyrimidin-4-yl]-3,8-diazabicyclo[3.2.1 l]octane-8-carboxamide] | 691 | 65 | 67 | > 10000 | 213 |  |  |
| CNC(=O)c1ncc(Nc2nccc(N3C[C@H]4CC[C@@H](C3)N4[C@H]3C[C@@H](C#N)C3)n2)cc1C (single isomer, unassigned) [Example 61] | 44 | 18 |  |  | 135 | 31 | 4080 |
| Cn1cc(Nc2nccc(N3C[C@H]4CC[C@@H](C3)N4Cc3ccno3)n2)cn1 [Example 56, N-(1-methyl-1H-pyrazol-4-yl)-4-[(1R,5S)-8-(1,2-oxazol-5-ylmethyl)-3,8-diazabicyclo[3.2.1]oct-3-yl]pyrimidin-2-amine] | 394 | 41 | 110 | > 10000 | 78 |  |  |
| Cn1cc(Nc2nccc(N3C[C@H]4CC[C@@H](C3)N4Cc3nccs3)n2)cn1 [Example 57, N-(1-methyl-1H-pyrazol-4-yl)-4-[(1R,5S)-8-(1,3-thiazol-2-ylmethyl)-3,8-diazabicyclo[3.2.1]oct-3-yl]pyrimidin-2-amine] | 1070 | 89 | 294 | > 10000 | 338 |  |  |
| O=C([C@@H]1CC1(F)F)N1[C@@H]2CC[C@H]1CN(c1ccnc(Nc3cnc(CO)c(F)c3)n1)C2 [Example 25, [(1S)-2,2-difluorocyclopropyl][(1R,5S)-3-(2-{[5-fluoro-6-(hydroxymethyl)pyridin-3-yl]amino}pyrimidin-4-yl)-3,8-diazabicyclo[3.2.1]oct-8-yl]methanone] | 468 | 34 | 317 | > 10000 | 229 |  |  |
| CC(CC#N)N1[C@@H]2CC[C@H]1CN(c1ccnc(Nc3cnn(C)c3)n1)C2 (stereo partly drawn) [Example 80, 3-[(1R,5S)-3-{2-[(1-methyl-1H-pyrazol-4-yl)amino]pyrimidin-4-yl}-3,8-diazabicyclo[3.2.1 l]oct-8-yl]butanenitrile] | 436 | 79 | 190 | > 10000 | 112 |  |  |
| CNC(=O)c1ncc(Nc2nccc(N3C[C@H]4CC[C@@H](C3)N4C(=O)[C@@H]3C[C@H]3C#N)n2)cc1F [Example 27, 5-({4-[(1R,5S)-8-{[(1R,2R)-2-cyanocyclopropyl]carbonyl}-3,8-diazabicyclo[3.2.1]oct-3-yl]pyrimidin-2-yl}amino)-3-fluoro-N-methylpyridine-2-carboxamide] | 640 | 61 | 78 | > 10000 | 139 |  |  |
| Cn1cc(Nc2ncc(F)c(N3C[C@@]4(CO)C[C@@]4(NC(=O)[C@@H]4C[C@H]4C#N)C3)n2)cn1 [Example 110, (1R,2R)-2-cyano-N-[(1S,5S)-3-{5-fluoro-2-[(1-methyl-1H-pyrazol-4-yl)amino]pyrimidin-4-yl}-5-(hydroxymethyl)-3-azabicyclo[3.1.0]hex-1-yl]cyclopropanecarboxamide] | 455 | 58 | 29 | 928 | 146 |  |  |
| CCNC(=O)N1[C@@H]2CC[C@H]1CN(c1ccnc(Nc3cnc(C(=O)NC)c(C)c3)n1)C2 [Example 91, (1R,5S)—N-ethyl-3-(2-{[5-methyl-6-(methylcarbamoyl)pyridin-3-yl]amino}pyrimidin-4-yl)-3,8-diazabicyclo[3.2.1]octane-8-carboxamide] | 513 | 39 | 183 | > 10000 | 195 |  |  |
| CCNC(=O)c1ccc(Nc2nccc(N3CC4CC(C3)N4C(=O)C3CC3)n2)cc1C [Example 113, 4-({4-[6-(cyclopropylcarbonyl)-3,6-diazabicyclo[3.1.1]hept-3-yl]pyrimidin-2-yl}amino)-N-ethyl-2-methylbenzamide] | 7860 | 82 | 8580 | > 10000 | 939 |  |  |
| CCNC(=O)N1[C@@H]2CC[C@H]1CN(c1ccnc(Nc3cnc(C(=O)NC)c(Cl)c3)n1)C2 [Example 75, (1R,5S)-3-(2-{[5-chloro-6-(methylcarbamoyl)pyridin-3-yl]amino}pyrimidin-4-yl)-N-ethyl-3,8-diazabicyclo[3.2.1]octane-8-carboxamide] | 1290 | 66 | 462 | > 10000 | 751 |  |  |
| O=C([C@@H]1CC1(F)F)N1[C@@H]2CC[C@H]1CN(c1ccnc(Nc3cnc(N4CC[C@H](O)C4)c(F)c3)n1)C2 [Example 20, [(1S)-2,2-difluorocyclopropyl]{(1R,5S)-3-[2-({5-fluoro-6-[(3S)-3-hydroxypyrrolidin-1-yl]pyridin-3-yl}amino)pyrimidin-4-yl]-3,8-diazabicyclo[3.2.1]oct-8-yl}methanone] | 346 | 58 | 314 | > 10000 | 458 |  |  |
| Cn1cc(Nc2nccc(N3C[C@H]4CC[C@@H](C3)N4C3CC(C#N)C3)n2)cn1 (stereo partly drawn) [Example 59, 3-[(1R,5S)-3-{2-[(1-methyl-1H-pyrazol-4-yl)amino]pyrimidin-4-yl}-3,8-diazabicyclo[3.2.1]oct-8-yl]cyclobutanecarbonitrile] | 236 | 62 | 78 | 8800 | 84 |  |  |
| O=C([C@@H]1CC1(F)F)N1[C@@H]2CC[C@H]1CN(c1ccnc(Nc3cnc(CCO)c(Cl)c3)n1)C2 [Example 18, [(1R,5S)-3-(2-{[5-chloro-6-(2-hydroxyethyl)pyridin-3-yl]amino}pyrimidin-4-yl)-3,8-diazabicyclo[3.2.1]oct-8-yl][(1S)-2,2-difluorocyclopropyl]methanone] | 331 | 62 | 352 | > 10000 | 338 |  |  |
| Cn1cc(Nc2nccc(N3C[C@H]4CC[C@@H](C3)N4C3(CC#N)COC3)n2)cn1 [Example 84, {3-[(1R,5S)-3-{2-[(1-methyl-1H-pyrazol-4-yl)amino]pyrimidin-4-yl}-3,8-diazabicyclo[3.2.1]oct-8-yl]oxetan-3-yl}acetonitrile] | 155 | 62 | 141 | > 10000 | 156 |  |  |
| CCNC(=O)N1[C@@H]2CC[C@H]1CN(c1ccnc(Nc3cnc(C(=O)NC)c(F)c3)n1)C2 [Example 87, (1R,5S)—N-ethyl-3-(2-{[5-fluoro-6-(methylcarbamoyl)pyridin-3-yl]amino}pyrimidin-4-yl)-3,8-diazabicyclo[3.2.1]octane-8-carboxamide] | 1790 | 93 | 337 | > 10000 | 582 |  |  |
| CNC(=O)c1ncc(Nc2nccc(N3C[C@H]4CC[C@@H](C3)N4C(=O)NCC(F)(F)F)n2)cc1C [Example 89] | 65 | 9 | 10 | 4430 | 118 |  |  |
| O=C([C@@H]1CC1(F)F)N1[C@@H]2CC[C@H]1CN(c1ccnc(Nc3cnc(CCO)c(F)c3)n1)C2 [Example 19, [(1S)-2,2-difluorocyclopropyl][(1R,5S)-3-(2-{[5-fluoro-6-(2-hydroxyethyl)pyridin-3-yl]amino}pyrimidin-4-yl)-3,8-diazabicyclo[3.2.1]oct-8-yl]methanone] | 402 | 52 | 463 | > 10000 | 238 |  |  |
| CNC(=O)c1ncc(Nc2nccc(N3C[C@H]4CC[C@@H](C3)N4C(=O)C3CC3)n2)cc1C [Example 6, 5-({4-[(1R,5S)-8-(cyclopropylcarbonyl)-3,8-diazabicyclo[3.2.1]oct-3-yl]pyrimidin-2-yl}amino)-N,3-dimethylpyridine-2-carboxamide] | 754 | 36 | 337 | > 10000 | 232 |  |  |
